Assay results reported in ChEMBL document CHEMBL1681699 (Bioorg Med Chem, 2011).

Tests used:
[1] = Biodistribution in Sprague-Dawley rat hippocampus at 3.7 x 10^3 to 5.55 x 10'3 GBq, iv after 30 mins; format: ADME, organism-based; details: in vivo, 0.5 h
[2] = Biodistribution in Sprague-Dawley rat hippocampus at 3.7 x 10^3 to 5.55 x 10^3 GBq, iv after 60 mins; format: ADME, organism-based; details: in vivo, 1 h
Striatum [3] = test: Biodistribution in Sprague-Dawley rat striatum at 3.7 x 10^3 to 5.55 x 10^3 GBq, iv after 5 mins; format: ADME, organism-based; details: in vivo
Striatum [4] = test: Biodistribution in Sprague-Dawley rat striatum at 3.7 x 10^3 to 5.55 x 10'3 GBq, iv after 30 mins; format: ADME, organism-based; details: in vivo, 0.5 h
Striatum [5] = test: Biodistribution in Sprague-Dawley rat striatum at 3.7 x 10^3 to 5.55 x 10^3 GBq, iv after 60 mins; format: ADME, organism-based; details: in vivo, 1 h
Cerebellum [6] = test: Biodistribution in Sprague-Dawley rat cerebellum at 3.7 x 10'3 to 5.55 x 10^3 GBq, iv after 5 mins; format: ADME, organism-based; details: in vivo
Cerebellum [7] = test: Biodistribution in Sprague-Dawley rat cerebellum at 3.7 x 10'3 to 5.55 x 10'3 GBq, iv after 30 mins; format: ADME, organism-based; details: in vivo, 0.5 h
Cerebellum [8] = test: Biodistribution in Sprague-Dawley rat cerebellum at 3.7 x 10'3 to 5.55 x 10^3 GBq, iv after 60 mins; format: ADME, organism-based; details: in vivo, 1 h
[9] = Metabolic stability in Sprague-Dawley rat brain assessed as radioactive compound remaining after 2 mins; format: ADME, tissue-based; details: read-out: Stability
[10] = Metabolic stability in Sprague-Dawley rat brain assessed as radioactive compound remaining after 20 mins; format: ADME, tissue-based; details: read-out: Stability
[11] = Metabolic stability in Sprague-Dawley rat brain assessed as radioactive compound remaining after 40 mins; format: ADME, tissue-based; details: read-out: Stability
[12] = Metabolic stability in Sprague-Dawley rat brain assessed as radioactive compound remaining after 60 mins; format: ADME, tissue-based; details: read-out: Stability
Brain [13] = test: Metabolic stability in Sprague-Dawley rat brain assessed as 4-(1-Methyl-4-pyridin-4-yl-1H-pyrazol-3-yl)-phenol remaining after 2 mins; format: ADME, tissue-based
Brain [14] = test: Metabolic stability in Sprague-Dawley rat brain assessed as 4-(1-Methyl-4-pyridin-4-yl-1H-pyrazol-3-yl)-phenol remaining after 20 mins; format: ADME, tissue-based
Brain [15] = test: Metabolic stability in Sprague-Dawley rat brain assessed as 4-(1-Methyl-4-pyridin-4-yl-1H-pyrazol-3-yl)-phenol remaining after 40 mins; format: ADME, tissue-based
Brain [16] = test: Metabolic stability in Sprague-Dawley rat brain assessed as 4-(1-Methyl-4-pyridin-4-yl-1H-pyrazol-3-yl)-phenol remaining after 60 mins; format: ADME, tissue-based
[17] = Metabolic stability in Sprague-Dawley rat plasma assessed as radioactive compound remaining after 2 mins; format: ADME, cell-free; details: read-out: Stability
[18] = Metabolic stability in Sprague-Dawley rat plasma assessed as radioactive compound remaining after 20 mins; format: ADME, cell-free; details: read-out: Stability
[19] = Metabolic stability in Sprague-Dawley rat plasma assessed as radioactive compound remaining after 40 mins; format: ADME, cell-free; details: read-out: Stability
[20] = Metabolic stability in Sprague-Dawley rat plasma assessed as radioactive compound remaining after 60 mins; format: ADME, cell-free; details: read-out: Stability
Plasma [21] = test: Metabolic stability in Sprague-Dawley rat plasma assessed as 4-(1-Methyl-4-pyridin-4-yl-1H-pyrazol-3-yl)-phenol remaining after 2 mins; format: ADME, cell-free
Plasma [22] = test: Metabolic stability in Sprague-Dawley rat plasma assessed as 4-(1-Methyl-4-pyridin-4-yl-1H-pyrazol-3-yl)-phenol remaining after 20 mins; format: ADME, cell-free
Plasma [23] = test: Metabolic stability in Sprague-Dawley rat plasma assessed as 4-(1-Methyl-4-pyridin-4-yl-1H-pyrazol-3-yl)-phenol remaining after 40 mins; format: ADME, cell-free
Plasma [24] = test: Metabolic stability in Sprague-Dawley rat plasma assessed as 4-(1-Methyl-4-pyridin-4-yl-1H-pyrazol-3-yl)-phenol remaining after 60 mins; format: ADME, cell-free
Plasma [25] = test: Metabolic stability in Sprague-Dawley rat plasma assessed as 4-(1-Methyl-4-pyridin-4-yl-1H-pyrazol-3-yl)-phenol remaining retention time administered intravenously measured after 60 mins postinjection; format: ADME, organism-based; details: in vivo, iv
Plasma [26] = test: Metabolic stability in Sprague-Dawley rat plasma assessed as compound remaining retention time administered intravenously measured after 60 mins postinjection; format: ADME, organism-based; details: in vivo, iv, 1 h
Brain [27] = test: Metabolic stability in Sprague-Dawley rat brain assessed as 4-(1-Methyl-4-pyridin-4-yl-1H-pyrazol-3-yl)-phenol remaining retention time administered intravenously measured after 60 mins postinjection; format: ADME, organism-based; details: in vivo, iv
Brain [28] = test: Metabolic stability in Sprague-Dawley rat brain assessed as compound remaining retention time administered intravenously measured after 60 mins postinjection; format: ADME, organism-based; details: in vivo, iv, 1 h
Blood = test: Biodistribution in Sprague-Dawley rat blood at 3.7 x 10^3 to 5.55 x 10^3 GBq, iv after 5 mins; format: ADME, organism-based; details: in vivo

Drug uptake [1]: 0.05 % ID/g
Drug uptake [2]: 0.051 % ID/g
Drug uptake (Striatum [3]): 0.3 % ID/g
Drug uptake (Striatum [4]): 0.236 % ID/g
Drug uptake (Striatum [5]): 0.164 % ID/g
Drug uptake (Cerebellum [6]): 0.133 % ID/g
Drug uptake (Cerebellum [7]): 0.036 % ID/g
Drug uptake (Cerebellum [8]): 0.035 % ID/g
remaining at 2 min [9]: 98.7%
remaining at 20 min [10]: 94.8%
remaining at 40 min [11]: 84.7%
remaining at 1 h [12]: 78.6%
Activity (Brain [13]): 1.03%
Activity (Brain [14]): 3.45%
Activity (Brain [15]): 11.47%
Activity (Brain [16]): 15.87%
remaining at 2 min [17]: 98.3%
remaining at 20 min [18]: 74.2%
remaining at 40 min [19]: 52.6%
remaining at 1 h [20]: 49.3%
Activity (Plasma [21]): 1.23%
Activity (Plasma [22]): 19.13%
Activity (Plasma [23]): 35.19%
Activity (Plasma [24]): 40.72%
Time (Plasma [25]): 3 min
Time (Plasma [26]): 3 min
Time (Brain [27]): 10.5 min
Time (Brain [28]): 10.5 min
Drug uptake (Blood): 0.123 % ID/g
SMILES: [11CH3]n1cc(-c2ccncc2)c(-c2ccc(OCc3ccc4ccccc4n3)cc2)n1
